For assay [1], the system named is 80 different CNS neurotransmitters receptors. Put plainly: Screen for in vitro affinity to 80 CNS neurotransmitter receptors. Format: binding. The following applies: MAP4343 10 µM; inhibition higher than 50% considered significant. On the procedure: (§1) MAP4343 has been screened for in vitro affinity to 80 different CNS neurotransmitters receptors using various validated binding assays.
(§2) Table 4. In vitro affinity of MAP4343 (10 µM) for CNS neurotransmitter receptors associated with side effects and/or abuse liability. Data are the average of two individual assays for each receptor and are expressed as % inhibition of the control specific binding of the reference compound. Results showing an inhibition higher than 50% are considered to represent significant effects of the test compound.

The test system of assay [2] is Wistar Kyoto (WKY) rats. Kind of assay: Anxious-like behavior: activity in the central square of the open-field arena, WKY rats. Format: in vivo, rat. The following applies: acute, MAP4343 10 mg/kg s.c., fluoxetine 10 mg/kg i.p., ketamine 30 mg/kg i.p. The procedure: After a 6-day period of acclimatization, all experimental groups received daily successive subcutaneous (250 µl per rat) and intraperitoneal (1 ml/kg) injections. WI rats received injection of vehicle (sesame oil + saline) while WKY rats were randomly assigned to […], as follow: KWY rats receiving only vehicle (sesame oil + saline) and WKY rats treated with MAP4343 (10 mg/kg, s.c.; rats received in parallel i.p. injections of saline), fluoxetine (10 mg/kg i.p., rats received in parallel s.c. injections of sesame oil) or ketamine (30 mg/kg, i.p.; rats received in parallel s.c. injections of sesame oil) (see Figure 3).
After, a 6-day period of acclimatization, the acute phase of treatment started for 4 days during behavioral tests were performed (Figure 3). All animals were injected 1h30 before the starting of behavioral test.
The animals were individually placed in the open field arena (OFA) (70 x 100 x 70 cm), with a central square (35 x 50 cm), located in a 50 lux illuminated room and videotaped during 3 min using a computerized system (VideoTrack V2.5, ViewPoint, Lyon, France).
OFA allows firstly the evaluation of total locomotor activity (LMA) thereby measuring the total distance travelled in the arena (in cm). Secondly, measurements of the activity in the center of the arena like (i) the number of entries in the center of arena and (ii) the total time spent in the center of arena (in sec) provide cues of anxiety-like behavior (Prut and Belzung, 2003). All these behavioral parameters were instantaneously measured automatically with the VideoTrack V2.5 software from the videos.

Assay [3] addresses T1, Muscarinic (Cholinergic) M1 (Homo sapiens, UniProt P11229).
T1 construct: expressed in transfected cells; host or cells: CHO cells
Kind of assay: CNS receptor binding assay, M1. The note with it: MAP4343 10 µM; [^3H] pirenzepine; Human recombinant (CHO cells); read-out: % Inhibition of control specific binding. On the procedure: as §1, §2

The target in a further assay is Noradrenergic β2 (Homo sapiens, UniProt P07550). Put plainly: CNS receptor binding assay, β2. The note with it: MAP4343 10 µM; [^3H] (-) CGP 12178; Human recombinant (CHO cells); read-out: % Inhibition of control specific binding. On the procedure:
as §1, §2

Assay [4] deals with microtubule-associated protein2 (MAP2). Kind of assay: Binding (affinity) by displacement of PREG-3H. The note with it: index of binding.
Assay [5] deals with Wistar Kyoto (WKY) rats. Kind of assay: Forced swimming test (FST), WKY rats. Format: in vivo, rat. The note with it: dose-ranging, MAP4343 15 mg/kg, Fig. 6B. On the procedure:
3B-methoxy-PREG (also referred to as "MAP4343" in Example 4) was dissolved in sesame oil by sonication using a Sonifer-450 (Branson Ultrasonics Corporation, Danbury, USA) during 1 cycle of 5 pulses in sesame oil. Fluoxetine (Biotrend, Köln, Germany) and Ketamine (Sigma-Aldrich, St-Quentin Fallvier, France) were dissolved in sterile saline solution (NaCl 0.9%). The drug formulations were prepared freshly each day of treatment. MAP4343 was administered subcutaneously (ranging of 1-15 mg/Kg/day) while fluoxetine and ketamine were injected intraperitonealy (10 mg/Kg/day and 30 mg/Kg/day, respectively).
After a 6-day period of acclimatization, all experimental groups received daily successive subcutaneous (250 µl per rat) and intraperitoneal (1 ml/kg) injections. […]
Rats were submitted to the forced swimming test (FST), according the procedure initially described by (Detke et al., 1995) and slightly modified by (Bianchi et al., 2002). […] The pre-test and test sessions were recorded using a video camera placed above the cylinder for subsequent behavioral analysis. The immobility time (in sec) was blindly measured by two independent experimenters from recorded videos. […]
The effects of a dose-ranging administration of MAP4343 were tested in WI and WKY rats on their immobility time measured in FST.

The subject of a further assay is PC12 cells. Put plainly: Stimulation of neuritic sprouting. The assay is classed as cell-based. The note with it: PC12 cells differentiated with NGF (10 ng/ml), steroid 30 µM, 3 days; relative to PREG. On the procedure:
Stimulation of neuritic sprouting is conducted on PC12 cells differentiated in the presence of NGF (10 ng/ml) and the steroid being tested (30 µM) for 3 days. For each condition, the average length of the longest 200 neurites […] is measured simultaneously for 3 cultures.

What is called inhibition is the relative decrease from the control value, in per cent.

T1 sequence (P11229 whole entry): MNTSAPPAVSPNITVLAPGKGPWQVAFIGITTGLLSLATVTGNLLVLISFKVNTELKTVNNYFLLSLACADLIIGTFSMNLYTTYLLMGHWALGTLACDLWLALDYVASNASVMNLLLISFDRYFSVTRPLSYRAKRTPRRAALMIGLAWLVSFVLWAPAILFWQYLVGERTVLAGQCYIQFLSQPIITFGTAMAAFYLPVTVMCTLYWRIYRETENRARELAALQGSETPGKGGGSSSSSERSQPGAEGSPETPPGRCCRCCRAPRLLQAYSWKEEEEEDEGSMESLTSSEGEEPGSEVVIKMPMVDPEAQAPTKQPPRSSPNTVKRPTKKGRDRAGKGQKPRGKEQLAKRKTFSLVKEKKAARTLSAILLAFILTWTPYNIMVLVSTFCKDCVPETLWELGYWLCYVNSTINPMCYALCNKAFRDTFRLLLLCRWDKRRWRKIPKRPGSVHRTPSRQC
Sequence of Noradrenergic β2 (P07550 whole entry): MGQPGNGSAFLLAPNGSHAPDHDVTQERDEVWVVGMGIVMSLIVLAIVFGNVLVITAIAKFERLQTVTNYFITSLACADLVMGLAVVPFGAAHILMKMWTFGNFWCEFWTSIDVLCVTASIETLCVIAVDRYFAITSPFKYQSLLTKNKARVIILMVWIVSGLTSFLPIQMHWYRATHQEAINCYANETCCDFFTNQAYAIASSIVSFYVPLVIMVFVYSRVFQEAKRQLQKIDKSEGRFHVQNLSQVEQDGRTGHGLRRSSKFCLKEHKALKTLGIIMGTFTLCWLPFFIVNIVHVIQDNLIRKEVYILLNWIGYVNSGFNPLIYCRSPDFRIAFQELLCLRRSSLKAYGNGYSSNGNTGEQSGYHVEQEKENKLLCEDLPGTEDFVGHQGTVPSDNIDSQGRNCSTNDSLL

`CO[C@H]1CC[C@@]2(C)C(=CC[C@H]3[C@@H]4CC[C@H](C(C)=O)[C@@]4(C)CC[C@@H]32)C1` (stereo in doubt) [MAP4343, 3β-methoxy-pregna-5-ene-20-one]: in assay [1], the “in vitro affinity for tested receptors” value is given as “no significant affinity for any tested receptor”. Further, in the assay on Wistar Kyoto (WKY) rats [2] (Fig. 5B), the “number of entries in the central square of OFA, change as compared to WKY receiving only vehicle” value is reported as “+289%”. Besides, in the assay with Wistar Kyoto (WKY) rats [2] (Fig. 5C), the “time spent in the center of open-field, change as compared to WKY receiving vehicle” value is on record as “did not modify”. In addition, the inhibition at 10 µM in assay [3] is -3%; on Noradrenergic β2 it was -4%. Also, the Affinity in assay [4] is on record as 100% of PREG. For the same molecule, the “immobility time measured in FST, change as compared to WKY receiving vehicle alone” value in the assay with Wistar Kyoto (WKY) rats [5] is -25%. Also, in the assay with PC12 cells, the Neuritic sprouting entry was “+++”.

The values are drawn from patent EP3436024B1, “3-BETA-METHOXY-PREG FOR USE IN THE TREATMENT OF TREATMENT RESISTANT DEPRESSION” (Mapreg, priority 2016, dated 2017).
